{"source": "patent US20120027816A1", "about": "“HIGHLY PURE ELETRIPTAN OR A PHARMACEUTICALLY ACCEPTABLE SALT THEREOF SUBSTANTIALLY FREE OF ELETRIPTAN N-OXIDE IMPURITY” (ACTAVIS GROUP PTC EHF, priority 2009, published 2012)", "note": "Where a name gives a salt, the structure may show the parent alone."}
{"assay": "Particle Size Distribution by laser diffraction (Malvern Master Sizer 2000)", "assay_type": "physicochemical", "conditions": "eletriptan hydrobromide obtained by the Example 4 procedure, unmilled, cumulative volume size distribution", "description": "As used herein, “Particle Size Distribution (PSD)” means the cumulative volume size distribution of equivalent spherical diameters as determined by laser diffraction in Malvern Master Sizer 2000 equipment or its equivalent using a particle size method containing Tegiloxan medium with sonication time of 10 seconds and stirrer speed of 2500 rpm. “Mean particle size distribution, i.e., (D50)” correspondingly, means the median of said particle size distribution. The important characteristics of the PSD are the (D90), which is the size, in microns, below which 90% of the particles by volume are found, and the (D50), which is the size, in microns, below which 50% of the particles by volume are found. Thus, a D90 or d(0.9) of less than 300 microns means that 90 volume-percent of the particles in a composition have a diameter less than 300 microns.", "units": {"Particle Size Distribution d(0.1)": "microns", "Particle Size Distribution d(0.5)": "microns", "Particle Size Distribution d(0.9)": "microns"}}
{"smiles": "CN1CCC[C@@H]1Cc1c[nH]c2ccc(CCS(=O)(=O)c3ccccc3)cc12", "note": "[Example 4C, eletriptan hydrobromide]", "Particle Size Distribution d(0.1)": 13.58, "Particle Size Distribution d(0.5)": 27.25, "Particle Size Distribution d(0.9)": 50.91}
{"smiles": "CN1CCC[C@@H]1Cc1c[nH]c2ccc(CCS(=O)(=O)c3ccccc3)cc12", "note": "[Example 4A, eletriptan hydrobromide]", "Particle Size Distribution d(0.1)": 12.07, "Particle Size Distribution d(0.5)": 27.69, "Particle Size Distribution d(0.9)": 53.92}
{"smiles": "CN1CCC[C@@H]1Cc1c[nH]c2ccc(CCS(=O)(=O)c3ccccc3)cc12", "note": "[Example 4B, eletriptan hydrobromide]", "Particle Size Distribution d(0.1)": 9.99, "Particle Size Distribution d(0.5)": 20.85, "Particle Size Distribution d(0.9)": 42.83}
